Measured values from patent US6500431B1, “Inhibitors of angiogenesis and tumor growth” (University of Southern California, priority 1998, dated 2002).
No end group written: not given here.

Experiments:
Format in all cases: cell-based
[1] = Activity of truncated recombinant Saposin B (FIG. 1C); conditions: cell type not given
Description: FIG. 1C: Activity of truncated recombinant Saposin B. Saposin (Sap) B 1-69 (consisting of the first 69 amino acids), Sap B 1-42 (consisting of the first 42 amino acids), Sap B 11-81 (consisting of 11-81 amino acids and thus lacking the first 10 amino acids).

endothelial cells = assay: Endothelial cell migration assay, fibronectin-coated transwell; conditions: chemotaxis induced by VEGF or bFGF
Procedure: (§1) The assays were done in double chamber wells separated by […] membrane. Chemotaxis was induced by bFGF (25 ng/mL) in the lower chamber. Endothelial cells or KS cells (5×10^4/mL) were placed in the upper chamber in the presence and absence of test polypeptides. Taxol at 10 ng/mL was used as a known inhibitor of migration. Cell migration across the membrane was quantitated after an overnight incubation.
Angiogenesis is mediated by complex biochemical processes including degradation of the basement membrane under existing blood vessel endothelial cells, followed by proliferation and migration of endothelial cells, followed by formation of capillary loops, and recruitment of vascular smooth muscle cells to encase the newly formed vessels and provide stability. […]
Briefly, wells were coated with fibronectin (25 μg/mL) overnight, and endothelial cells or KS cells were plated in the upper chamber with 100 μL of DMEM/0.4% FCS. […] The plates were incubated for 5 hr at 37° C. and the cells crossing the fibronectin-coated membrane were counted after wiping the cells off the membrane in the upper chamber with a cotton swab.
The cells that traversed the membrane were fixed with Diff-Quik stain according to the manufacturer's instruction (Dade Diagnostics Inc., Aguada, PR). The cells were counted under a microscope at 320× in four randomly selected fields. […]

KS Y-1 cells [2] = assay: KS Y-1 cell proliferation assay (MTT); conditions: concentration not printed, 5 days, MTT
Procedure: (§2) To determine if Saposin B polypeptides had anti-angiogenic activity, a series of overlapping polypeptides were synthesized and tested in the KS Y-1 cell proliferation assay. The overlapping polypeptides are SEQ ID NOS:13 though 42. Cell Proliferation assays in either KS cells or fibroblast. Cells were plated in 48 well plates at equal numbers in appropriate culture medium. Cells were treated with the test compounds at various concentrations on day one, and on day 3. MTT was done on day 5. KS cells were used to represent the activated endothelial cells, while fibroblast cells represent the control cells. The results are remarkable for the lack of toxicity to the fibroblast relative to the activated endothelial cells/KS cells.

T1 cells = assay: Fibroblast proliferation assay (MTT); conditions: 5000 T1 cells/well, 7 days
Procedure: as §2, with “MTT was done on day 5.” left out

KS Y-1 cells [3] = assay: KS cell migration assay, fibronectin-coated transwell; conditions: 50,000 KS Y-1 cells/well, 25 ng/mL bFGF, overnight
Procedure: as §1
Angiogenesis is mediated by complex biochemical processes including degradation of the basement membrane under existing blood vessel endothelial cells, followed by proliferation and migration of endothelial cells, followed by formation of capillary loops, and recruitment of vascular smooth muscle cells to encase the newly formed vessels and provide stability. KS and endothelial cell migration in the presence of Saposin B was studied in transwell culture plates with 8 μm pore membranes (Costar, Cambridge, Mass.).
Briefly, wells were coated with fibronectin (25 μg/mL) overnight, and endothelial cells or KS cells were plated in the upper chamber with 100 μL of DMEM/0.4% FCS. 500 μL of DMEM/0.4% FCS was added to the lower chamber and incubated at 37° C. for one hour. The test polypeptides, at various concentrations, were added to the upper chamber, and chemotactic agents (VEGF or bFGF at 20 ng/mL) were added to the lower cell-culture chambers. The plates were incubated for 5 hr at 37° C. and the cells crossing the fibronectin-coated membrane were counted after wiping the cells off the membrane in the upper chamber with a cotton swab.
The cells that traversed the membrane were fixed with Diff-Quik stain according to the manufacturer's instruction (Dade Diagnostics Inc., Aguada, PR). The cells were counted under a microscope at 320× in four randomly selected fields. The experiments were done in duplicate and repeated at least three times.

Sap B 1-42: truncated recombinant Saposin B consisting of the first 42 amino acids (GDVCQDCIQMVTDIQTAVRTNSTFVQALVEHVKEECDRLGPG; ends and bridges not checked; cysteine pairing not given here; UniProt P07602 195-236, looked up, fragment)
growth inhibition by truncated recombinant Saposin B [1]: dose dependent growth inhibition

CC(=O)O[C@H]1C(=O)[C@@]2(C)[C@H]([C@H](OC(=O)c3ccccc3)[C@]3(O)C[C@H](OC(=O)[C@H](O)[C@@H](NC(=O)c4ccccc4)c4ccccc4)C(C)=C1C3(C)C)[C@]1(OC(C)=O)CO[C@@H]1C[C@@H]2O [paclitaxel, reference compound]
inhibition of endothelial cell migration (endothelial cells): did not completely inhibit

GDVCQDCIQMV [SEQ ID NO:19]
Cell Proliferation Activity (% of control), KSY-1 (KS Y-1 cells [2]; first of two KSY-1 value columns): 28 % of control
Cell Proliferation Activity (% of control), KSY-1 (KS Y-1 cells [2]; second of two KSY-1 value columns): 8 % of control
Fibroblast Proliferation, % of Control (T1 cells; 1 μg/mL): 91.3 % of Control
Fibroblast Proliferation, % of Control (T1 cells; 10 μg/mL): 91.3 % of Control
Fibroblast Proliferation, % of Control (T1 cells; 50 μg/mL): 82.6 % of Control
% Cells Migrating Through Membrane (of Control) (KS Y-1 cells [3]; 1 μg/mL): 78.23 % (of Control)
% Cells Migrating Through Membrane (of Control) (KS Y-1 cells [3]; 50 μg/mL): 20.98 % (of Control)
% Cells Migrating Through Membrane (of Control) (KS Y-1 cells [3]): 40.32 % (of Control)
